Data from patent EP0729465B1, “PYRONE DERIVATIVES AS PROTEASE INHIBITORS AND ANTIVIRAL AGENTS” (PARKE, DAVIS & COMPANY, priority 1993, dated 1995).
Read-outs that look alike come from different tables or passages of the source.

How the values were obtained:
HIV-I Protease = biological target: T1, HIV-I Protease (Human immunodeficiency virus type 1 group M subtype B, UniProt P04585); assay: HIV protease inhibition (hydrolysis of undecapeptide substrate, HPLC readout); assay type: biochemical; conditions: read-out: 50% Inhibition Concentration (Averaged)
T1 construct: HIV-I Protease: The enzyme is obtained from Bachem Bioscience Inc; purchased Bachem Bioscience Inc
Method: • DTT Buffer: 1.0 mM dithiothreitol (DTT) was prepared fresh daily in 0.1% polyethylene glycol (mw 8000) 80 mM NaOAc, 160 mM NaCl, 1.0 mM EDTA, and brought to pH 4.7 with HCl. • HIV-I Protease: The enzyme is obtained from Bachem Bioscience Inc. The undiluted enzyme is thawed from -80 °C and diluted 50-fold with DTT buffer. The solution is always kept at 0 °C on ice water and used in the experiment within 20 minutes after thawing. • Enzyme Substrate: Substrate III from Bachem Bioscience Inc. is the undecapeptide H-His-Lys-Ala-Arg-Val-Leu-p-Nitrophenylalanine-Glu-Ala-Norleucine-ser-NH2 (> 97 % purity). A 200. µM stock solution in DTT buffer is prepared and stored on ice. Substrate solution is prepared fresh daily. • Test Compound: 10 mM inhibitor (I) in dimethyl sulfoxide (DMSO) is diluted to 200 µM with DTT buffer. From the 200 µM stock solution is made a 10 µM stock solution with 2% DMSO in DTT buffer. The two inhibitor solutions are used to make final [I] = 100, 50, 20, 10, 5, 2, 1, 0.5 and 0 µM with 2% DMSO in DTT buffer in each reaction well (total inhibitor volume of 50 µl).
To each reaction well is added 20 µl of substrate (final concentration of 40 µM), 50 µl of inhibitor (at a concentration such that final dilution will produce the test concentration) and 20 µl of DTT buffer. The reaction plate (96 wells) is incubated at 37 °C for at least 5 minutes.
10 µl of the diluted protease is added to the reaction well while the reaction plate is shaking. Once shaken for 10 seconds, the plate is returned to the heating block at 37 °C. (Final reaction volume = 100 µl.)
The reaction is incubated for 5 minutes at 37 °C. The reaction is stopped by placing the reaction plate on the shaker and adding 20 µl of 10% trifluoroacetic acid (TFA) and shaking for 10 seconds. The amount of proteolysis is then determined by separation of noncleaved substrate and two cleaved products with reverse-phase HPLC, while measuring absorbance at 220 nm to determine the relative peak areas of the three components. The relative peak areas are used to calculate % conversion to product as a function of inhibitor concentration. The data is plotted as % Control (the ratio of % conversion in the presence and absence of inhibitor x 100) versus inhibitor concentration and fit with the equation Y= 100/1+(X/IC50)^A, where IC50 is the inhibitor concentration at 50% inhibition and A is the slope of the inhibition curve.

HIV-1iiib = assay: Anti-HIV-1 activity, acute infection of H9 cells; assay type: cell-based; conditions: Human immunodeficiency virus 1; H9 cell line infected with HIV-1iiib; reverse transcriptase assay at 4 and 7 days post infection; read-out: Concentration for 50% Protection
Method: Using the general methods of Pauwels et al., (J. Virol. Methods, 16, 171-185, 1987) and Mann et al. (AIDS Research and Human Retroviruses, 253-255, 1989) anti-viral assays of acute HIV-1 infection were performed in the H9 cell line. Cultures were batch infected in 1 ml of RPM1 1640 media/10% fetal calf serum containing 10^7 cells and 10^5 infectious doses of HIV-1iiib for an effective multiplicity of infection of 0.01. After 2 hours of viral absorption, cells were washed once and plated in 96-well microtiter plates at a density of 10^4 cells per well. Test compounds were added to produce the desired concentration of drug and 0.2% DMSO in a final volume of 200 µl. Uninfected parallel cultures were maintained for XTT cytotoxicity assay at 7 days post infection. Cultures were tested for viral replication by reverse transcriptase assay at 4 and 7 days post infection.

[1] = 40 µM substrate, pH 4.7, 37 °C, 5 minutes

SMILES | IC50 (HIV-I Protease; [1]) [nM] | EC50 (HIV-1iiib) [µM] | IC50 (HIV-I Protease) [nM]
O=c1oc(-c2ccccc2)cc(O)c1C(Sc1ccccc1)c1ccccc1 (racemic) [Example 31, 4-Hydroxy-6-phenyl-3-[phenyl(phenylthio)methyl]-2H-pyran-2-one] | 800 |  | 
CC(C)CC(Sc1ccccc1)c1c(O)cc(-c2ccccc2)oc1=O (racemic) [Example 73, 4-Hydroxy-3-[3-methyl-1-(phenylthio)butyl]-6-phenyl-2H-pyran-2-one] | 410 | 15 | 
CC(C)CC(SC1CCCC1)c1c(O)cc(-c2ccccc2)oc1=O (racemic) [Example 96, 3-[1-(Cyclopentylthio)-3-methylbutyl]-4-hydroxy-6-phenyl-2H-pyran-2-one] | 70 |  | 
CC(C)CC(SC1CCCCC1)c1c(O)cc(-c2ccc3c(c2)OCCO3)oc1=O (racemic) [Example 115, 3-[1-(Cyclohexylthio)-3-methylbutyl]-6-(2,3-dihydro-1,4-benzodioxin-6-yl)4-hydroxy-2H-pyran-2-one] | 200 |  | 
O=c1oc(-c2ccccc2)cc(O)c1C(CC1CC1)SCc1ccccc1 (racemic) [Example 119, 3-[2-Cyclopropyl-1-[(phenylmethyl)thio]ethyl]-4-hydroxy-6-phenyl-2H-pyran-2-one] | 60 |  | 
O=c1oc(-c2ccccc2)cc(O)c1C(CC1CC1)SC1CCCC1 (racemic) [Example 149, 3-[1-[Cyclopentylthio]-2-cyclopropylethyl]-4-hydroxy-6-phenyl-2H-pyran-2-one] |  |  | 55
O=c1oc(-c2ccccc2)cc(O)c1C(SC1CCCC1)C1CCCC1 (racemic) [Example 151, 3-[Cyclopentyl(cyclopentylthio)methyl]-4-hydroxy-6-phenyl-2H-pyran-2-one] | 230 | 14 | 
O=c1oc(-c2cccc(Cl)c2)cc(O)c1SCc1ccccc1 [Example 1, 6-(3-Chlorophenyl)-4-hydroxy-3-[(phenylmethyl)thio]-2H-pyran-2-one] | 470 |  | 
O=c1oc(-c2ccc(Cl)c(Cl)c2)cc(O)c1SCc1ccccc1 [Example 3, 6-(3,4-Dichlorophenyl)-4-hydroxy-3-[(phenylmethyl)thio]-2H-pyran-2-one] | 1000 |  | 
COc1cccc(-c2cc(O)c(SCc3ccccc3)c(=O)o2)c1 [Example 4, 4-Hydroxy-6-(3-methoxyphenyl)-3-[(phenylmethyl)thio]-2H-pyran-2-one] | 900 |  | 
O=c1oc(-c2cccc(Cl)c2)cc(O)c1SCCc1ccccc1 [Example 6, 6-(3-Chlorophenyl)-4-hydroxy-3-[(2-phenylethyl)thio]-2H-pyran-2-one] | 400 |  | 
O=c1oc(-c2ccccc2)cc(O)c1SCc1ccccc1 [Example 8] | 1700 |  | 
O=c1oc(-c2ccc(O)cc2)cc(O)c1SCc1ccccc1 [Example 15, 4-Hydroxy-6-(4-hydroxyphenyl)-3-[(phenylmethyl)thio]-2H-pyran-2-one] | 690 |  | 
O=c1oc(-c2ccccc2)cc(O)c1SCCOc1ccccc1 [Example 20, 4-Hydroxy-3-[(2-phenoxyethyl)thio]-6-phenyl-2H-pyran-2-one] | 1700 |  | 
O=c1oc(-c2cccc(O)c2)cc(O)c1SCc1ccccc1 [Example 23, 4-Hydroxy-6-(3-hydroxyphenyl)-3-[(phenylmethyl)thio]-2H-pyran-2-one] | 1200 |  | 
O=c1oc(-c2ccc(O)cc2)cc(O)c1SCCc1ccccc1 [Example 24, 4-Hydroxy-6-(4-hydroxyphenyl)-3-[(phenylethyl)thio]-2H-pyran-2-one] | 500 |  | 
O=c1oc(-c2ccccc2)cc(O)c1SC/C=C/c1ccccc1 [Example 25, 4-Hydroxy-6-phenyl-3-[3-(phenyl-2-propenyl)thio]-2H-pyran-2-one, (E)-] | 1900 |  | 

SMILES | IC50 (HIV-I Protease; [1]) [nM] | EC50 (HIV-1iiib) [µM] | IC50 (HIV-I Protease) [nM]
O=c1oc(-c2ccc(OCc3ccccc3)cc2)cc(O)c1SCCc1ccccc1 [Example 26, 4-Hydroxy-3-[(2-phenylethyl)thio]-6-[4-(phenylmethoxy)phenyl] 2-2H-pyran-2-one] | 330 | 17 | 
O=c1oc(-c2cccc(OCCc3ccccc3)c2)cc(O)c1SCCc1ccccc1 [Example 30, 4-Hydroxy-6-[3-(2-phenylethoxy)phenyl]-3-[(2-phenyl-ethyl)thio]-2H-pyran-2-one] | 1970 |  | 
O=c1oc(-c2cccc(OCc3ccccc3)c2)cc(O)c1SCCc1ccccc1 [Example 39, 4-Hydroxy-3-[(2-phenylethyl)thio]-6-[3-(phenylmethoxy)phenyl]-2H-pyran-2-one] | 750 |  | 
Cc1cccc(-c2cc(O)c(SCc3ccccc3)c(=O)o2)c1 [Example 42, 4-Hydroxy-6-(3-methylphenyl)-3-[(phenylmethyl)thio]-2H-pyran-2-one] | 860 |  | 
COc1ccc(-c2cc(O)c(SCc3ccccc3)c(=O)o2)cc1C [Example 46, 4-Hydroxy-6-(4-methoxy-3-methylphenyl)-3-[(phenylmethyl)thio]-2H-pyran-2-one] | 700 |  | 
O=c1oc(-c2ccc3c(c2)OCO3)cc(O)c1SCc1ccccc1 [Example 50, 6-(1,3-Benzodioxol-5-yl)-4-hydroxy-3-[(phenylmethyl)thio]-2H-pyran-2-one] | 600 |  | 
COc1ccccc1COc1ccc(-c2cc(O)c(SCCc3ccccc3)c(=O)o2)cc1 [Example 54, 4-Hydroxy-6-[4-[(2-methoxyphenyl)methoxy]phenyl]-3-[(2-phenylethyl)thio]-2H-pyran-2-one] | 450 |  | 
Cc1cc(C)cc(-c2cc(O)c(SCc3ccccc3)c(=O)o2)c1 [Example 56, 6-(3,5-Dimethylphenyl)-4-hydroxy-3-[(phenylmethyl)-thio]-2H-pyran-2-one] | 130 | 29 | 
O=c1oc(-c2ccc(Oc3ccccc3)cc2)cc(O)c1SCCc1ccccc1 [Example 57, 4-Hydroxy-6-(4-phenoxyphenyl)-3-[(2-phenylethyl)thio]-2H-pyran-2-one] | 1900 |  | 
O=c1oc(-c2ccc(OCc3ccccn3)cc2)cc(O)c1SCCc1ccccc1 [Example 59, 4-Hydroxy-3-[(2-phenylethyl)thio]-6-[4-(2-pyridinylmethoxy)phenyl]-2H-pyran-2-one] | 770 |  | 
CCOC(=O)COc1ccc(-c2cc(O)c(SCCc3ccccc3)c(=O)o2)cc1 [Example 60, 4-[4-Hydroxy-2-oxo-3-[(2-phenylethyl)thio]-2H-pyran-6-yl]phenoxy acetic acid ethyl eater] | 610 |  | 
O=C(O)COc1ccc(-c2cc(O)c(SCCc3ccccc3)c(=O)o2)cc1 [Example 63, 4-[4-Hydroxy-2-oxo-3-[(2-phenylethyl)thio]-2H-pyran-6-yl]phenoxyacetic acid] | 140 |  | 
Cc1cc(-c2cc(O)c(SCc3ccccc3)c(=O)o2)cc(C)c1O [Example 99, 4-Hydroxy-6-(4-hydroxy-3,5-dimethylphenyl)-3-[(phenylmethyl)thio]-2H-pyran-2-one] | 240 |  | 
Cc1cc(C)cc(-c2cc(O)c(Sc3ccccc3)c(=O)o2)c1 [Example 148, 6-(3,5-Dimethylphenyl)-4-hydroxy-3-(phenylthio)-2H-pyran-2-one] | 630 |  | 
Cc1cc(C)cc(-c2cc(O)c(Sc3ccccc3C(C)C)c(=O)o2)c1 [Example 154, 6-(3,5-Dimethylphenyl)-4-hydroxy-3-[(2-isopropylphenyl)-thio]-2H-pyran-2-one] |  | 31 | 
O=c1oc(-c2cccc(-c3ccccc3)c2)cc(O)c1Sc1ccc2ccccc2c1 [Example 168, 6-(1,1'-Biphenyl-3-yl)-4-hydroxy-3-[(naphthalen-2-yl)thio]-2H-pyran-2-one] | 410 |  | 
